Counter-ions that a name gives are not always drawn.
Experiments:
Type in all cases: cell-based
Adenosine 1 receptor = target: T1, Adenosine 1 receptor (Homo sapiens, UniProt P30542); assay: Agonist activity against adenosine 1 receptor subtype (CHO cells, forskolin-enhanced cAMP, SPAP reporter); conditions: EC50 ratio to NECA; transfected CHO cells, forskolin-enhanced cAMP reflected by SPAP
T1 construct: expressed in transfected cells; host or cells: Chinese hamster ovary (CHO) cells, co-transfected with a CRE-SPAP reporter
T1 sequence (P30542 1-326): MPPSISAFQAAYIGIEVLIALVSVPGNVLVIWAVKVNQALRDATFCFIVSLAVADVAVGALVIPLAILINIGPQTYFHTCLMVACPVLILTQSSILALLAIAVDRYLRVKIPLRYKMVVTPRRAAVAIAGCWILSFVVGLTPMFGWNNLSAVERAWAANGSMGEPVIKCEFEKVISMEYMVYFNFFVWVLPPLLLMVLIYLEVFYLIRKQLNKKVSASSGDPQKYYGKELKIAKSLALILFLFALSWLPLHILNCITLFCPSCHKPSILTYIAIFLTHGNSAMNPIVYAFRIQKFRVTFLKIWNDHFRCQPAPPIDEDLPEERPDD
In short: (§1)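 CHO cells expressed the human receptor plus a cAMP response element–driven SPAP reporter. Agonism was measured as SPAP change from forskolin-enhanced cAMP for A1 and A3, and from basal cAMP for A2a. EC50 is expressed as a ratio to that of NECA.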

Adenosine 2a receptor = target: T2, Adenosine 2a receptor (Homo sapiens, UniProt P29274); assay: Agonist activity against adenosine 2a receptor subtype (CHO cells, cAMP response element/SPAP reporter); conditions: EC50 ratio to NECA; transfected CHO cells, basal cAMP reflected by SPAP
T2 construct: expressed in transfected cells; host or cells: Chinese hamster ovary (CHO) cells, co-transfected with a CRE-SPAP reporter
T2 sequence (P29274 whole entry): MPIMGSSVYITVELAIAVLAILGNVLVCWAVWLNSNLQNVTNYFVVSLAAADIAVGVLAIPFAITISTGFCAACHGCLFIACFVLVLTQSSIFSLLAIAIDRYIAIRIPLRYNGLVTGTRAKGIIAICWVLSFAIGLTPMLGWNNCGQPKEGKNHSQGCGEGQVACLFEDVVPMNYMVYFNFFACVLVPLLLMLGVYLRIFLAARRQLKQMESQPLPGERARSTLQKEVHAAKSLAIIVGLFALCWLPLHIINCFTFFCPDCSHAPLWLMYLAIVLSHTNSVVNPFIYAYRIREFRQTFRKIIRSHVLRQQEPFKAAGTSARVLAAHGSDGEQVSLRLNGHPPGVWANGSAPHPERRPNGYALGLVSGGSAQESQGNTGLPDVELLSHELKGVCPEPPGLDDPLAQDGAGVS
In short: as §1

Adenosine 3 receptor = target: T3, Adenosine 3 receptor (Homo sapiens, UniProt P0DMS8); assay: Agonist activity against adenosine 3 receptor subtype (CHO cells, forskolin-enhanced cAMP, SPAP reporter); conditions: EC50 ratio to NECA; transfected CHO cells, forskolin-enhanced cAMP reflected by SPAP
T3 construct: expressed in transfected cells; host or cells: Chinese hamster ovary (CHO) cells, co-transfected with a CRE-SPAP reporter
T3 sequence (P0DMS8 1-318): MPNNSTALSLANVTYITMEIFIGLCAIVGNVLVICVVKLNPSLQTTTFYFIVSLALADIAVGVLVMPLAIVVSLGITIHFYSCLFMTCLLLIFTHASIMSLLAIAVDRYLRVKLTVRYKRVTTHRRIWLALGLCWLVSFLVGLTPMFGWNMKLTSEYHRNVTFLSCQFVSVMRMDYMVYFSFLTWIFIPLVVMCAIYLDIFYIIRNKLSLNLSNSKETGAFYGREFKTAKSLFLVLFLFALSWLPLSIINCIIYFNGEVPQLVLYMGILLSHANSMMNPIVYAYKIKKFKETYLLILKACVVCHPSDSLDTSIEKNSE
In short: as §1

| A1 (EC50 values as a ratio of that of NECA) (Adenosine 1 receptor) | A2a (EC50 values as a ratio of that of NECA) (Adenosine 2a receptor) | A3 (EC50 values as a ratio of that of NECA) (Adenosine 3 receptor) | Compound |
| --- | --- | --- | --- |
| 155.86 | 4.53 | ≧248.4 | (2R,3R,4S,5S)-2-{6-(1-Ethyl-propylamino)-2-[2-(1-methyl-1H-imidazol-4-yl)-ethylamino]-purin-9-yl}-5-(3-propyl-isoxazol-5-yl)-tetrahydro-furan-3,4-diol diformate [Example 60] |
| 89.16 | 2.53 | >223 | CCc1cc(C2OC(n3cnc4c(NC(CC)CC)nc(NC(CO)Cc5ccccc5)nc43)C(O)C2O)on1 [Example 35, (2S,3S,4R,5R)-2-(3-Ethyl-4-isoxazol-5-yl)-5-[6-(1-ethyl-propylamino)-2-(1S-hydroxymethyl-2-phenyl-ethylamino)-purin-9-yl]-tetrahydro-furan-3,4-diol formate] |

Reference: patent US6762170B1, “2-(purin-9-yl)-tetrahydrofuran-3,4-diol derivatives” (SmithKlineBeecham Corporation, priority 1998, dated 2004)
